The results in this text go back to BindingDB's records for doi:10.1021/jm061344o (Incyte, 2007).

The nature of the assay: Inhibition of Her2 sheddase activity in BT474 cell line.
The IC50 is the point on the concentration scale where inhibition reaches its midpoint. The low end stands for greater potency in that assay, the high end for weaker potency in that assay. `O=C(NO)[C@H]1CCCN[C@@H]1C(=O)N1CC[C@H](c2ccccc2)C1` [(2S,3S)-N-hydroxy-2-((R)-3-phenylpyrrolidine-1-carbonyl)piperidine-3-carboxamide]: inhibition was half-maximal at 560 nM (IC50). `O=C(NO)[C@H]1CC2(CC2)CN[C@@H]1C(=O)N1CCN2c3ccccc3CC2C1` (stereo partly drawn) [(6S,7S)-N-hydroxy-6-(3,4,10,10a-tetrahydropyrazino[1,2-a]indol-2(1H)-ylcarbonyl)-5-azaspiro[2.5]octane-7-carboxamide] had an IC50 of 280 nM. Regarding `O=C(NO)[C@H]1CC2(CC2)CN[C@@H]1C(=O)N1CCC(c2ccccc2)CC1` [(6S,7S)-N-hydroxy-6-[(4-phenylpiperidin-1-yl)carbonyl]-5-azaspiro[2.5]octane-7-carboxamide], the IC50 is 140 nM.
